This note sets out measurements from patent US12485092B2, “Composition for promoting drug release of drug-delivery liposomes” (INDUSTRY ACADEMY COOPERATION FOUNDATION OF SEJONG UNIVERSITY, priority 2022, dated 2025).

Data set [1] relates to HCT-116 colorectal cancer cells.
Another data set can be described thus: in vivo. The conditions noted are these: SD, rat, iv, 5 mg/kg.

Method for in vivo: Eight week-old SD rats were randomly divided into three groups (doxorubicin, CAELYX and CAELYX+omega liposome), respectively. Each group was anesthetized with 100 mg/kg of ketamine, followed by inserting polyethylene tubes into the jugular vein and the carotid for drug injection and blood gathering, respectively. To the three groups, the doxorubicin solution, CAELYX and a CAELYX+omega liposome mixture were intravenously administered through the jugular vein at a 5 mg/kg doxorubicin dose. Thereafter, 120 μL of blood was collected at 1, 5, 15, 30, 60, 120, 180, 240, 360, 480, 720, 960, 1,440, 2,160 and 2,880 minutes, respectively, and centrifuged, followed by gathering 50 μl of plasma to analyze a doxorubicin concentration through HPLC. In order to prevent blood coagulation after blood gathering, 0.3 mL of physiological saline for injection containing 201U of heparin was flushed. In addition, after drug administration, urine was collected up to 24 hours and measured for volume.
For quantification of doxorubicin concentration in plasma and urine, 100 μL of acetonitrile and 15 μL of 15 μg/mL daunorubicin (internal standard material) were added and well mixed in 50 μL of the plasma or urine, and then centrifuged at 13,000 rpm for 5 minutes to remove the plasma protein. Thereafter, 100 μL of the supernatant was introduced into HPLC column (reversed phase column, particle size 5 inner diameter 4.6 mm, length 250 mm). Mobile phase composed of 68:32 (v/v) mixture of water (pH 2.60) and acetonitrile was used at a flow rate of 1 mL/min. For detection of drugs, a fluorescence detector was used wherein excitation (Ex) wavelength is 475 nm and emission (Em) wavelength is 555 nm.
The plasma concentration of doxorubicin quantified by HPLC assay was used to calculate pharmacokinetic parameters using WinNonlin program. For statistical analysis of the pharmacokinetic parameters among the above three groups, Tukey's test was carried out after performing analysis of variance (ANOVA), wherein P<0.05 is considered to be statistically significant.

As to `COc1cccc2c1C(=O)c1c(O)c3c(c(O)c1C2=O)C[C@@](O)(C(=O)CO)C[C@@H]3O[C@H]1C[C@H](N)[C@H](O)[C@H](C)O1` [Doxorubicin solution, doxorubicin], the IC50 in data set [1] was 265 nM. Moreover, in “in vivo”, the AUC was 9820 ng·h/mL, the MRT is 1.18 h, the clearance was 8.91 ± 2.06 mL/min/kg and the half-life stood at 118 min. The compound further gave an IC50 with B16-F10 melanoma cells of 191 nM.

The IC50 is the concentration needed to halve the response being measured. Higher therefore signals weaker potency. For orientation: AUC means the area under the concentration-time curve, a measure of exposure. In general, MRT refers to a mean duration of stay, worked out from the concentration-time curve. Usually clearance stands for the rate of elimination divided by the concentration. The low end stands for inefficient removal, the high end for efficient removal. As a reminder, the half-life is the time in which the quantity being followed falls by half. Read a high half-life as slow decline.
